In patent publication US9532990B2 (Zhejiang DTRM Biopharma Co. Ltd., priority 2014, dated 2017):
pIC50: −log10 of the molar value.

These compounds were tested against BTK wild type (Homo sapiens (Human), UniProt Q06187) (assay: Inhibition assay of BTK kinase activity (HTRF)). Conditions: not given.
Type: biochemical
Description: Inhibition Assay of BTK Kinase Activity:
The enzyme reaction mixture of BTK wild type standard HTRF assay contained 1 nM BTK wild type, 1 μM biotin-TK1 peptide, and 30 μM ATP in a buffer. The enzyme reaction were carried out at room temperature for 60 minutes. […] The plates were incubated at room temperature for 60 minutes and then read in the Envision plate reader.

Sequence of BTK wild type (Q06187 whole entry): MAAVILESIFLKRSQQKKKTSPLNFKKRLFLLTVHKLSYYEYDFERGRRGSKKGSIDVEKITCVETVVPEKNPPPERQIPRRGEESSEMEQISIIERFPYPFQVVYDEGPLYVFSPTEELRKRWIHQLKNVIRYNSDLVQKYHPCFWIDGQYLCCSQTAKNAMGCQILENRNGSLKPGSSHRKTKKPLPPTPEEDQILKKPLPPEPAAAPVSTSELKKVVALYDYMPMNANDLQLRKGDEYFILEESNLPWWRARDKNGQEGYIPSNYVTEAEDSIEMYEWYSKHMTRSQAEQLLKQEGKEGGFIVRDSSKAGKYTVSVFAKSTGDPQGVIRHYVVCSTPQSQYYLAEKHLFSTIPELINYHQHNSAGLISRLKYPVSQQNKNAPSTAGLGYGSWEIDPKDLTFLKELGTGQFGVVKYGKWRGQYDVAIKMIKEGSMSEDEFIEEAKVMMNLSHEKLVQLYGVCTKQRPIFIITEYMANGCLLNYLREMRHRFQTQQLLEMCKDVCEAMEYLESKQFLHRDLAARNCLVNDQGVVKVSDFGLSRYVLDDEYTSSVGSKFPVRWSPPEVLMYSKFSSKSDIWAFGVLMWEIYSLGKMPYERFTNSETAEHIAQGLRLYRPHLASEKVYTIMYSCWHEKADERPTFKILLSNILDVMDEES

| SMILES | pIC50 |
| --- | --- |
| Nc1ncnc2c1c(-c1ccc(Oc3c(F)c(F)cc(F)c3F)cc1F)nn2[C@@H]1CCN(C(=O)CCl)C1 [Compound 75, 1-((R)-3-(4-amino-3-(2-fluoro-4-(2,3,5,6-tetrafluorophenoxy)phenyl)-1H-pyrazolo[3,4-d]pyrimidin-1-yl)pyrrolidin-1-yl)-2-chloroethanone] | > 8.00 |

Same assay, conditions: all compounds with IC50 of less 10 nM; read-out: IC50 (BTK)

| SMILES | pIC50 |
| --- | --- |
| Nc1ncnc2c1c(-c1ccc(Oc3c(F)c(F)cc(F)c3F)cc1F)nn2C1CCCN(C(=O)CCl)C1 (stereo not shown) [Compound 61, 1-(3-(4-amino-3-(2-fluoro-4-(2,3,5,6-tetrafluorophenoxy)phenyl)-1H-pyrazolo[3,4-d]pyrimidin-1-yl)piperidin-1-yl)-2-chloroethanone] | > 8.00 |
| C=CC(=O)N1CC[C@@H](n2nc(-c3ccc(C(=O)c4ccccc4F)cc3F)c3c(N)ncnc32)C1 [Compound 72, 1-((R)-3-(4-amino-3-(2-fluoro-4-(2-fluorobenzoyl)phenyl)-1H-pyrazolo[3,4-d]pyrimidin-1-yl)pyrrolidin-1-yl)prop-2-en-1-one] | > 8.00 |
| CCOC(=O)/C=C/CNC(=O)N1CCCC(n2nc(-c3ccc(Oc4c(F)c(F)cc(F)c4F)cc3F)c3c(N)ncnc32)C1 (stereo not shown) [Compound 74, (E)-ethyl 4-(3-(4-amino-3-(2-fluoro-4-(2,3,5,6-tetrafluorophenoxy)phenyl)-1H-pyrazolo[3,4-d]pyrimidin-1-yl)piperidine-1-carboxamido)but-2-enoate] | > 8.00 |

Same assay, conditions: read-out: BTK IC50

| SMILES | pIC50 |
| --- | --- |
| Nc1ncnc2c1c(-c1ccc(Oc3c(F)c(F)cc(F)c3F)cc1F)nn2[C@@H]1CCN(C(=O)CCCl)C1 [Compound 58, 1-((R)-3-(4-amino-3-(2-fluoro-4-(2,3,5,6-tetrafluorophenoxy)phenyl)-1H-pyrazolo[3,4-d]pyrimidin-1-yl)pyrrolidin-1-yl)-3-chloropropan-1-one] | 6.83 |
| Nc1ncnc2c1c(-c1ccc(Oc3c(F)c(F)cc(F)c3F)cc1F)nn2C1CCCN(C(=O)c2c[nH]cn2)C1 (stereo not shown) [Compound 59, (3-(4-amino-3-(2-fluoro-4-(2,3,5,6-tetrafluorophenoxy)phenyl)-1H-pyrazolo[3,4-d]pyrimidin-1-yl)piperidin-1-yl)(1H-imidazol-4-yl)methanone] | 6.76 |
| Nc1ncnc2c1c(-c1ccc(Oc3c(F)c(F)cc(F)c3F)cc1F)nn2C1CCCN(C(=O)c2cccnc2)C1 (stereo not shown) [Compound 60, (3-(4-amino-3-(2-fluoro-4-(2,3,5,6-tetrafluorophenoxy)phenyl)-1H-pyrazolo[3,4-d]pyrimidin-1-yl)piperidin-1-yl)(pyridin-3-yl)methanone] | 6.24 |
| Nc1ncnc2c1c(-c1ccc(Oc3c(F)c(F)cc(F)c3F)cc1F)nn2C1CCCN(C(=O)CCl)C1 (stereo not shown) [Compound 61, 1-(3-(4-amino-3-(2-fluoro-4-(2,3,5,6-tetrafluorophenoxy)phenyl)-1H-pyrazolo[3,4-d]pyrimidin-1-yl)piperidin-1-yl)-2-chloroethanone] | 9.10 |
| CN(C)CC(=O)N1CCCC(n2nc(-c3ccc(Oc4c(F)c(F)cc(F)c4F)cc3F)c3c(N)ncnc32)C1 (stereo not shown) [Compound 62, 1-(3-(4-amino-3-(2-fluoro-4-(2,3,5,6-tetrafluorophenoxy)phenyl)-1H-pyrazolo[3,4-d]pyrimidin-1-yl)piperidin-1-yl)-2-(dimethylamino)ethanone] | 6.68 |
| Nc1ncnc2c1c(-c1ccc(Oc3c(F)c(F)cc(F)c3F)cc1F)nn2C1CCCN(C(=O)C2CNC(=O)S2)C1 (stereo not shown) [Compound 63, 5-(3-(4-amino-3-(2-fluoro-4-(2,3,5,6-tetrafluorophenoxy)phenyl)-1H-pyrazolo[3,4-d]pyrimidin-1-yl)piperidine-1-carbonyl)thiazolidin-2-one] | 6.34 |
| C=C(C(=O)N1CCCC(n2nc(-c3ccc(Oc4c(F)c(F)cc(F)c4F)cc3F)c3c(N)ncnc32)C1)C(F)(F)F (stereo not shown) [Compound 64, 1-(3-(4-amino-3-(2-fluoro-4-(2,3,5,6-tetrafluorophenoxy)phenyl)-1H-pyrazolo[3,4-d]pyrimidin-1-yl)piperidin-1-yl)-2-(trifluoromethyl)prop-2-en-1-one] | 8.22 |
| Nc1ncnc2c1c(-c1ccc(Oc3c(F)c(F)cc(F)c3F)cc1F)nn2C1CCCN(C(=O)CC(=O)C(F)(F)F)C1 (stereo not shown) [Compound 65, 1-(3-(4-amino-3-(2-fluoro-4-(2,3,5,6-tetrafluorophenoxy)phenyl)-1H-pyrazolo[3,4-d]pyrimidin-1-yl)piperidin-1-yl)-4,4,4-trifluorobutane-1,3-dione] | 6.92 |
| O=C(CC(=O)C(F)(F)F)Nc1ncnc2c1c(-c1ccc(Oc3c(F)c(F)cc(F)c3F)cc1F)nn2C1CCCNC1 (stereo not shown) [Compound 66, 4,4,4-trifluoro-N-(3-(2-fluoro-4-(2,3,5,6-tetrafluorophenoxy)phenyl)-1-(piperidin-3-yl)-1H-pyrazolo[3,4-d]pyrimidin-4-yl)-3-oxobutanamide] | 6.14 |
| Nc1ncnc2c1c(-c1ccc(Oc3c(F)c(F)cc(F)c3F)cc1F)nn2C1CCCN(C(=O)CC(=O)C2CC2)C1 (stereo not shown) [Compound 67, 1-(3-(4-amino-3-(2-fluoro-4-(2,3,5,6-tetrafluorophenoxy)phenyl)-1H-pyrazolo[3,4-d]pyrimidin-1-yl)piperidin-1-yl)-3-cyclopropylpropane-1,3-dione] | 6.23 |
| C=C(CN1CCCC(n2nc(-c3ccc(Oc4c(F)c(F)cc(F)c4F)cc3F)c3c(N)ncnc32)C1)C(=O)OCC (stereo not shown) [Compound 68, ethyl 2-((3-(4-amino-3-(2-fluoro-4-(2,3,5,6-tetrafluorophenoxy)phenyl)-1H-pyrazolo[3,4-d]pyrimidin-1-yl)piperidin-1-yl)methyl)acrylate] | 6.55 |
| C=C(CN1CCCC(n2nc(-c3ccc(Oc4c(F)c(F)cc(F)c4F)cc3F)c3c(N)ncnc32)C1)C(=O)NC (stereo not shown) [Compound 69, 2-((3-(4-amino-3-(2-fluoro-4-(2,3,5,6-tetrafluorophenoxy)phenyl)-1H-pyrazolo[3,4-d]pyrimidin-1-yl)piperidin-1-yl)methyl)-N-methylacrylamide] | 7.28 |
| C=C(C#N)CN1CCCC(n2nc(-c3ccc(Oc4c(F)c(F)cc(F)c4F)cc3F)c3c(N)ncnc32)C1 (stereo not shown) [Compound 70, 2-((3-(4-amino-3-(2-fluoro-4-(2,3,5,6-tetrafluorophenoxy)phenyl)-1H-pyrazolo[3,4-d]pyrimidin-1-yl)piperidin-1-yl)methyl)acrylonitrile] | 7.77 |
| C=CC(=O)N1CC[C@@H](n2nc(-c3ccc(C(=O)c4ccccc4F)cc3F)c3c(N)ncnc32)C1 [Compound 72, 1-((R)-3-(4-amino-3-(2-fluoro-4-(2-fluorobenzoyl)phenyl)-1H-pyrazolo[3,4-d]pyrimidin-1-yl)pyrrolidin-1-yl)prop-2-en-1-one] | 9.00 |
| CCOC(=O)/C=C/CNC(=O)N1CCCC(n2nc(-c3ccc(Oc4c(F)c(F)cc(F)c4F)cc3F)c3c(N)ncnc32)C1 (stereo not shown) [Compound 74, (E)-ethyl 4-(3-(4-amino-3-(2-fluoro-4-(2,3,5,6-tetrafluorophenoxy)phenyl)-1H-pyrazolo[3,4-d]pyrimidin-1-yl)piperidine-1-carboxamido)but-2-enoate] | 8.52 |
| Nc1ncnc2c1c(-c1ccc(Oc3c(F)c(F)cc(F)c3F)cc1F)nn2[C@@H]1CCN(C(=O)CCl)C1 [Compound 75, 1-((R)-3-(4-amino-3-(2-fluoro-4-(2,3,5,6-tetrafluorophenoxy)phenyl)-1H-pyrazolo[3,4-d]pyrimidin-1-yl)pyrrolidin-1-yl)-2-chloroethanone] | 8.52 |
| CNC(=O)/C=C/CNC(=O)N1CC[C@@H](n2nc(-c3ccc(Oc4c(F)c(F)cc(F)c4F)cc3F)c3c(N)ncnc32)C1 [Compound 76, (3R)-3-(4-amino-3-(2-fluoro-4-(2,3,5,6-tetrafluorophenoxy)phenyl)-1H-pyrazolo[3,4-d]pyrimidin-1-yl)-N-(4-(methylamino)-4-oxobut-2-enyl)pyrrolidine-1-carboxamide] | 7.57 |
| Nc1ncnc2c1c(-c1ccc(Oc3c(F)c(F)cc(F)c3F)cc1F)nn2[C@@H]1CCN(C(=O)C(=O)C(F)(F)F)C1 [Compound 77, 1-((R)-3-(4-amino-3-(2-fluoro-4-(2,3,5,6-tetrafluorophenoxy)phenyl)-1H-pyrazolo[3,4-d]pyrimidin-1-yl)pyrrolidin-1-yl)-3,3,3-trifluoropropane-1,2-dione] | 6.70 |
| Nc1ncnc2c1c(-c1ccc(Oc3c(F)c(F)cc(F)c3F)cc1F)nn2[C@@H]1CCN(C(=O)C(=O)C2CC2)C1 [Compound 78, 1-((R)-3-(4-amino-3-(2-fluoro-4-(2,3,5,6-tetrafluorophenoxy)phenyl)-1H-pyrazolo[3,4-d]pyrimidin-1-yl)pyrrolidin-1-yl)-2-cyclopropylethane-1,2-dione] | 5.72 |
| CC(C)C(=O)C(=O)N1CC[C@@H](n2nc(-c3ccc(Oc4c(F)c(F)cc(F)c4F)cc3F)c3c(N)ncnc32)C1 [Compound 79, 1-((R)-3-(4-amino-3-(2-fluoro-4-(2,3,5,6-tetrafluorophenoxy)phenyl)-1H-pyrazolo[3,4-d]pyrimidin-1-yl)pyrrolidin-1-yl)-3-methylbutane-1,2-dione] | 5.78 |
| CC(C)(CO)C(=O)C(=O)N1CC[C@@H](n2nc(-c3ccc(Oc4c(F)c(F)cc(F)c4F)cc3F)c3c(N)ncnc32)C1 [Compound 80, 1-((R)-3-(4-amino-3-(2-fluoro-4-(2,3,5,6-tetrafluorophenoxy)phenyl)-1H-pyrazolo[3,4-d]pyrimidin-1-yl)pyrrolidin-1-yl)-4-hydroxy-3,3-dimethylbutane-1,2-dione] | 5.89 |
| Nc1ncnc2c1c(-c1ccc(Oc3c(F)c(F)cc(F)c3F)cc1F)nn2C1CCCN(C(=O)C(=O)C2CC2)C1 (stereo not shown) [Compound 81, 1-(3-(4-amino-3-(2-fluoro-4-(2,3,5,6-tetrafluorophenoxy)phenyl)-1H-pyrazolo[3,4-d]pyrimidin-1-yl)piperidin-1-yl)-2-cyclopropylethane-1,2-dione] | 5.65 |
| C=CC(=O)NCCn1nc(-c2ccc(Oc3c(F)c(F)cc(F)c3F)cc2F)c2c(N)ncnc21 [Compound 82, N-(2-(4-amino-3-(2-fluoro-4-(2,3,5,6-tetrafluorophenoxy)phenyl)-1H-pyrazolo[3,4-d]pyrimidin-1-yl)ethyl)acrylamide] | 7.60 |
| C=CC(=O)NC(C)C(C)n1nc(-c2ccc(Oc3c(F)c(F)cc(F)c3F)cc2F)c2c(N)ncnc21 (stereo not shown) [Compound 83, N-(3-(4-amino-3-(2-fluoro-4-(2,3,5,6-tetrafluorophenoxy)phenyl)-1H-pyrazolo[3,4-d]pyrimidin-1-yl)butan-2-yl)acrylamide] | 7.12 |
| C=CC(=O)NCC(C)n1nc(-c2ccc(Oc3c(F)c(F)cc(F)c3F)cc2F)c2c(N)ncnc21 (stereo not shown) [Compound 84, N-(2-(4-amino-3-(2-fluoro-4-(2,3,5,6-tetrafluorophenoxy)phenyl)-1H-pyrazolo[3,4-d]pyrimidin-1-yl)propyl)acrylamide] | 7.80 |
| C=CC(=O)N(C)CCn1nc(-c2ccc(Oc3c(F)c(F)cc(F)c3F)cc2F)c2c(N)ncnc21 [Compound 85, N-(2-(4-amino-3-(2-fluoro-4-(2,3,5,6-tetrafluorophenoxy)phenyl)-1H-pyrazolo[3,4-d]pyrimidin-1-yl)ethyl)-N-methylacrylamide] | 7.77 |
| C=CC(=O)N(C)CCCn1nc(-c2ccc(Oc3c(F)c(F)cc(F)c3F)cc2F)c2c(N)ncnc21 [Compound 86, N-(3-(4-amino-3-(2-fluoro-4-(2,3,5,6-tetrafluorophenoxy)phenyl)-1H-pyrazolo[3,4-d]pyrimidin-1-yl)propyl)-N-methylacrylamide] | 8.10 |
